What all share (assay): NCI-60 cell line screen, 48 h
Assay [1] has as its system BT-549 breast.
In assay [2] the test system is CCRF-CEM leukemia.
Assay [3] relates to HCT-116 colon.
Assay [4] deals with HCT-15 colon.
The subject of assay [5] is HL-60(TB) leukemia.
Assay [6] deals with HOP-92 NSCLC.
Assay [7] concerns HS 578T breast.
Assay [8] has as its system KM12 colon.
The test system of assay [9] is MCF7 breast.
Assay [10] deals with MDA-MB-231 breast.
The subject of assay [11] is NCI-H23 lung.
In assay [12] the test system is NCI-H522 lung.
Assay [13] deals with NCI/ADR-RES ovarian.
The subject of assay [14] is OVCAR-3 ovarian.
The test system of assay [15] is OVCAR-5 ovarian.
The test system of assay [16] is OVCAR-8 ovarian.
Assay [17] relates to RPMI-8226 leukemia.
In assay [18] the test system is SF-295 CNS.
In assay [19] the test system is SN12C renal.
Assay [20] deals with T-47D breast.

TGI data for nine compounds are collected here from PubChem BioAssay (NCI).

Each structure is given as a SMILES string.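 Values below derive from 48-hour exposures of cells grown in 96-well plates, with endpoints linearly interpolated between the two concentrations bracketing the appropriate inhibition level. TGI: total growth inhibition.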

Turning to `COc1ccc(/C=C(/c2ccccc2)c2c(C)cc(C)c(/C(=C\c3ccc(OC)cc3)c3ccccc3)c2N=Nc2cc(C)cc(C)c2)cc1`, the TGI is more than 100 µM in assay [1]; more than 100 µM in assay [2]; more than 87.8 µM in assay [3]; more than 100 µM in assay [4]; more than 42.4 µM in assay [5]; more than 100 µM in assay [6]. The TGI in assay [7] was more than 100 µM; in [8] it was more than 71.9 µM; in assay [9], more than 100 µM; in assay [10] it was 16 µM; in assay [11] it was more than 83.8 µM; in assay [12] it was more than 64.1 µM. The TGI was more than 100 µM in assay [13]; 30.2 µM in [14]; more than 100 µM in assay [15]; more than 100 µM in assay [16]; more than 100 µM in [17]; more than 100 µM in [18]. The TGI is 23.4 µM in assay [19] and more than 100 µM in [20].

Take `CC(=O)OC1[C@@H](OC(C)=O)CN(OCc2ccccc2)C[C@H]1OC(C)=O` (stereo not given in full): the TGI in assay [1], in assay [2], in [3], in assay [4], in [5] and in assay [6] was more than 100 µM throughout. The TGI in assay [7], in [8], in assay [9], in [10], in [11] and in assay [12] was more than 100 µM each time. Moreover, the TGI in [13], in assay [14], in assay [15], in [16], in assay [17] and in [18] was more than 100 µM throughout. For the same compound, the TGI in [19] and in assay [20] was more than 100 µM in each case.

With `C=CCn1c(-c2ccc(Cl)cc2Cl)csc1=Nc1c(C)n(C)n(-c2ccccc2)c1=O`, the TGI in assay [1] is 26.4 µM; in assay [2], 38.1 µM; in assay [3], 20.4 µM; in [4], 30 µM; in assay [5] it was 25.8 µM; in [6] it was 41.1 µM. For the same compound, the TGI in assay [7] came out at 44.7 µM; in assay [8] it was 29.3 µM; in assay [9], 25.4 µM; in assay [10], 30 µM; in [11], 23.4 µM; in assay [12], 29.6 µM. The TGI in [13] was 34.2 µM; in assay [14], 23.7 µM; in [15] it was 31.1 µM; in assay [16], 21.7 µM; in assay [17], more than 46.3 µM; in [18], 21.2 µM. Also, the figures for the TGI in assay [19] and in [20] were 27.5 µM and 16.6 µM, respectively.

For the compound `COC(=O)c1ccc(C)cc1CC1Cc2c(C)cccc2C1=O` (stereo not given), the TGI is 21.1 µM in assay [1]; 62.2 µM in assay [2]; 15.4 µM in assay [3]; 12.7 µM in [4]; 24.2 µM in assay [5]; 46.8 µM in [6]. For the same compound, the TGI is 34 µM in assay [7]; 16.1 µM in assay [8]; 7.93 µM in assay [9]; 8.42 µM in assay [10]; more than 46.6 µM in assay [11]; 22.8 µM in [12]. Moreover, the TGI in assay [13] was 17.2 µM; in [14] it was 16.1 µM; in assay [15], more than 100 µM; in [16], more than 68.8 µM; in assay [17] it was 30.3 µM; in assay [18], more than 52.8 µM. In addition, the TGI was 28.2 µM in assay [19] and more than 100 µM in assay [20].

As to `NC(N)=NS(=O)(=O)c1ccc(NC(=O)c2ccc3nc4ccccc4c(N)c3c2)cc1`, the TGI in assay [1], in [2], in assay [3], in assay [4], in [5] and in assay [6] was more than 100 µM throughout. The TGI in assay [7], in assay [8], in [9], in assay [10], in [11] and in assay [12] was more than 100 µM throughout. Also, the TGI in assay [13], in assay [14], in assay [15], in assay [16], in assay [17] and in assay [18] was more than 100 µM in each case. For the same compound, the TGI in assay [19] and in assay [20] was more than 100 µM in each case.

Regarding `Cc1cccc(C(=O)O)c1CC1NCCC2c3ccccc3NC12` (stereo not given), the TGI in [1], in assay [2], in assay [3], in assay [4], in assay [5] and in assay [6] was more than 100 µM throughout. Further, the TGI in assay [7], in assay [8], in [9], in [10], in [11] and in [12] was more than 100 µM each time. Also, the TGI in assay [13], in assay [14], in assay [15], in assay [16], in assay [17] and in [18] was more than 100 µM each time. The TGI in assay [19] and in [20] was more than 100 µM each time.

For the compound `NC(=S)N/N=C1\CCCCC1C(O)(C(F)(F)Cl)C(F)(F)Cl` (stereo not given), the TGI in assay [1], in assay [2], in assay [3], in [4], in assay [5] and in assay [6] was more than 10 µM in each case. In addition, the TGI in assay [7], in [8], in [9], in assay [10], in assay [11] and in assay [12] was more than 10 µM in each case. Moreover, the TGI in assay [13], in assay [14], in assay [15], in assay [16], in assay [17] and in assay [18] was more than 10 µM each time. For the same compound, the TGI in assay [19] and in assay [20] was more than 10 µM in each case.

On to `CCOP(C)(=O)/C(Cc1ccc(OC)c(OC)c1)=N\O` (stereo not given), for which the TGI in [1], in [2], in [3], in assay [4], in [5] and in assay [6] was more than 100 µM throughout. Besides, the TGI in assay [7], in assay [8], in [9], in assay [10], in assay [11] and in assay [12] was more than 100 µM each time. In addition, the TGI in assay [13], in [14], in [15], in [16], in assay [17] and in assay [18] was more than 100 µM each time. Moreover, the TGI in [19] and in assay [20] was more than 100 µM throughout.

Take `Cc1nc2ccccc2c(=O)n1/N=C/c1ccc(N(C)C)cc1`: the TGI in assay [1], in assay [2], in assay [3], in [4], in assay [5] and in [6] was more than 100 µM each time. Further, the TGI was 54 µM in assay [7]; more than 100 µM in [8]; more than 100 µM in [9]; more than 100 µM in assay [10]; more than 100 µM in assay [11]; more than 100 µM in [12]. The TGI in assay [13], in [14], in assay [15], in assay [16], in assay [17] and in assay [18] was more than 100 µM each time. Further, the TGI in assay [19] and in [20] was more than 100 µM each time.
